For the experiment, the system named is Baf3-FLT3 cells. In words: Cell proliferation assay, single agents and FTI/FLT3 inhibitor combinations, Baf3-FLT3. The experiment is classed as cell-based, murine. The note with it: with single sub-IC50 dose of FLT3 inhibitor Compound A, 100 nM. On the procedure:
The cell lines that were tested included those that are dependent on FLT3ITD mutant activity for growth (MV4-11 and Baf3-FLT3ITD), FLT3wt activity for growth (Baf3FLT3) and those that grow independent of FLT3 activity (THP-1). […] Baf3-FLT3 and Baf3-FLT3ITD cell lines were obtained from Dr. Michael Henrich and the Oregon Health Sciences University. The Baf3 FLT3 cell lines were created by stable transfection of parental Baf3 cells (a murine B cell lymphoma line dependent on the cytokine IL-3 for growth) with either wild-type FLT3 or FLT3 containing the ITD insertion in the juxatamembrane domain of the receptor resulting in its constitutive activation. […]
To statistically evaluate the synergy of a FLT3 inhibitor and an FTI in FLT3 dependent cell lines, dosing combinations were evaluated by the method of Chou and Talalay. See Chou T C, Talalay P. (1984) “Quantitative analysis of dose-effect relationships: the combined effects of multiple drugs or enzyme inhibitors.” Adv Enzyme Regul. […] Using this method, multiple FTI and FLT3 combinations were evaluated. […]
Cell proliferation assay for MV4-11, Baf3-ITD, Baf3-FLT3 and THP-1 cells. […] Total cell growth is quantified as the difference in luminescent counts (relative light units, RLU) of cell number at Day 0 compared to total cell number at Day 3 (72 hours of growth and/or compound treatment). […]

The values that follow come from patent US20070004660A1, “Synergistic Modulation of Flt3 Kinase Using Alkylquinolines and Alkylquinazolines” (priority 2005, published 2007).

Consider `Cn1cncc1C(N)(c1ccc(Cl)cc1)c1ccc2c(c1)c(-c1cccc(Cl)c1)cc(=O)n2C` (single isomer, unassigned; (+)) [Tipifarnib, (+)-6-[amino(4-chlorophenyl)(1-methyl-1H-imidazol-5-yl)methyl]-4-(3-chlorophenyl)-1-methyl-2(1H)-quinolinone], for which the “increase in potency of Tipifarnib” value is reported as “more than 3 fold”.
